Measured values taken from PMC6268181, “Synthesis of Novel IP Agonists via N-Aminoethyl Cyclic Amines Prepared by Decarboxylative Ring-Opening Reactions” (Molecules, 2012).
Structures can show the parent of a compound that is named as a salt.

Biological target: T1, human IP receptor (PGI2 receptor) (Homo sapiens, UniProt P43119)
T1 construct: gene PTGIR
Experiment: competitive binding assay with membrane fractions of CHO or COS-7 cells expressing the receptor; also cAMP increase in COS-7 cells expressing human IP

T1 sequence (P43119 1-383): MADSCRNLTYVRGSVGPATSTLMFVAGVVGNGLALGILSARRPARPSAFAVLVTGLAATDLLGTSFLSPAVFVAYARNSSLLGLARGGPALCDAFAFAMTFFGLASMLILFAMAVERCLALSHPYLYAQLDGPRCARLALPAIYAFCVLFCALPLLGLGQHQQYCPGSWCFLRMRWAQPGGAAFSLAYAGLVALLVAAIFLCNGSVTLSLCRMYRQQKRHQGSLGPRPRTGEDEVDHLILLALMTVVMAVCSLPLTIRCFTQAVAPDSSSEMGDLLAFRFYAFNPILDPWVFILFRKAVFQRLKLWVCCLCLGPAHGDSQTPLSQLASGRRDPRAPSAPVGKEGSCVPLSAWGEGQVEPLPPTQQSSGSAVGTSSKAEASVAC

Ki: 310 nM
Structure (SMILES): O=C(O)COC1CCN(CCN(C(=O)c2ccc3c(c2)OCO3)c2ccc(Cl)cc2)CC1 [compound 2, 2-((1-(2-(N-(4-Chlorophenyl)benzo[d][1,3]dioxole-5-carboxamido)ethyl)piperidin-4-yl)oxy)acetic acid phosphoric acid salt]
